The results in this text go back to patent publication US20220089575A1, “FARNESOID X RECEPTOR AGONISTS AND USES THEREOF” (Metacrine, Inc., priority 2017, published 2022).

This assay has as its target T1, hFXR (Homo sapiens, UniProt Q96RI1).
T1 construct: expressed in transfected cells; host or cells: CV-1 cells
T1 sequence (Q96RI1 1-486): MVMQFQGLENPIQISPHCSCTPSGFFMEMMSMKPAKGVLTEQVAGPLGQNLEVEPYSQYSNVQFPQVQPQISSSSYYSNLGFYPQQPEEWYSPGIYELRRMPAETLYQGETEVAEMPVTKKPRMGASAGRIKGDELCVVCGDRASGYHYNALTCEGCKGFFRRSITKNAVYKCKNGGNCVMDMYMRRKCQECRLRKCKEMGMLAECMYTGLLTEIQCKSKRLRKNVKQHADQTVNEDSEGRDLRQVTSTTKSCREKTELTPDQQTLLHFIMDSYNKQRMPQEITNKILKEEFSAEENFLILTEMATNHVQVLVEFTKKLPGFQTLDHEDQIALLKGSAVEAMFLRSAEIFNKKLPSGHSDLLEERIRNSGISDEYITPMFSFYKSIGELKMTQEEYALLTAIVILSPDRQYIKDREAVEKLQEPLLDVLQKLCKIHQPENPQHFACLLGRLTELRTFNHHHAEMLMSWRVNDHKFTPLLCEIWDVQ
T1 sequence (P19793 1-462 partner): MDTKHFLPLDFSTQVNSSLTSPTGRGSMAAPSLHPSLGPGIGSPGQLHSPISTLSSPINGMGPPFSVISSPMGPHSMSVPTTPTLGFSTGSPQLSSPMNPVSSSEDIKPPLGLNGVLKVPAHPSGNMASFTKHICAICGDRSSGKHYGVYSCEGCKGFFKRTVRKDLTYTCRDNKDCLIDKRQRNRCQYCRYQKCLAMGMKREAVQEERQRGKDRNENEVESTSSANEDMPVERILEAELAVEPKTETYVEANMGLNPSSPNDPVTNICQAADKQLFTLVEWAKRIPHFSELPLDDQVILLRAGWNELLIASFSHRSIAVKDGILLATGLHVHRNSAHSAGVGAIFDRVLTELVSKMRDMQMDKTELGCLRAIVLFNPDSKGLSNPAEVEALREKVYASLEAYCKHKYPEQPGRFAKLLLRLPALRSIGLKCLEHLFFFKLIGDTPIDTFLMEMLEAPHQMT
Description: In Vitro FXR Assay (TK): TK-ECRE-luc reporter in transfected CV-1 cells. The note with it: 18 hrs, luminescence, maximum efficacy of <25% of the Fexarmine control classified as '+'. Format: cell-based. An outline of the steps:
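Cells are seeded in charcoal double-stripped FBS medium, transfected overnight with FXR/RXR expression and ECRE-driven luciferase reporter plasmids, then treated with serially diluted compounds for 18 h. Lysates are measured for luciferase light output.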
`CNCCOCC(=O)N[C@H]1CC[C@H](C(=O)N(C[C@H]2CC[C@H](c3ccc(OC)c(C)c3)CC2)c2cccc(-c3cnc(C4CC4)s3)c2)CC1` [Compound 32.06, trans-N-(3-(2-Cyclopropylthiazol-5-yl)phenyl)-N-((trans-4-(4-methoxy-3-methylphenyl)cyclohexyl)methyl)-4-(2-(2-(methylamino)ethoxy)acetamido) cyclohexanecarboxamide] showed an EC50 of at least 1 µM.

Take `COc1ccc([C@H]2CC[C@H](CN(c3cccc(-c4cnc(C5CC5)s4)c3)C(=O)[C@H]3CC[C@H](c4nnn[nH]4)CC3)CC2)cc1C` [Compound 33, trans-N-(3-(2-Cyclopropylthiazol-5-yl)phenyl)-N-((trans-4-(4-methoxy-3-methylphenyl)cyclohexyl)methyl)-4-(2H-tetrazol-5-yl)cyclohexanecarboxamide]: the EC50 was at most 0.25 µM. Next, `COc1ccc([C@H]2CC[C@H](CN(c3cccc(-c4cnn(C5CC5)c4)c3)C(=O)[C@H]3CC[C@H](c4nnn[nH]4)CC3)CC2)cc1C` [Compound 33.01, trans-N-(3-(1-Cyclopropyl-1H-pyrazol-4-yl)phenyl)-N-((trans-4-(4-methoxy-3-methylphenyl)cyclohexyl)methyl)-4-(2H-tetrazol-5-yl) cyclohexanecarboxamide]: at most 0.25 µM. The same measure for `COc1ccc([C@H]2CC[C@H](CN(c3cccc(-c4cnn(C5CC5)c4)c3)C(=O)[C@H]3CC[C@H](c4noc(=O)[nH]4)CC3)CC2)cc1C` [Compound 34, trans-N-(3-(1-Cyclopropyl-1H-pyrazol-4-yl)phenyl)-N-((trans-4-(4-methoxy-3-methylphenyl)cyclohexyl)methyl)-4-(5-oxo-4,5-dihydro-1,2,4-oxadiazol-3-yl)cyclohexanecarboxamide]: at most 0.25 µM.
